Common to all, as to assay: NCI-60 cell line screen, 48 h
Assay [1] deals with EKVX NSCLC.
Assay [2] has as its system SK-MEL-5 melanoma.
Assay [3] concerns RPMI-8226 leukemia.
Assay [4] relates to M14 melanoma.
Assay [5] has as its system UACC-257 melanoma.
The subject of assay [6] is KM12 colon.
In assay [7] the test system is OVCAR-5 ovarian.
The test system of assay [8] is SK-OV-3 ovarian.
In assay [9] the test system is HS 578T breast.
Assay [10] concerns CCRF-CEM leukemia.

Results on 16 molecules are retold here after PubChem BioAssay (NCI).

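1) Cells in 96-well plates. 2) Compound, 48 h, 5 concentrations. 3) Linear interpolation between surrounding doses. 4) Unreached endpoint = highest concentration. At the GI50, growth is halved. TGI: concentration producing complete growth inhibition.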

For `COc1cc2c(=O)n(CCN(C)C)c3c4cc5c(cc4ccc3c2cc1OC)OCO5`, the GI50 was 0.694 µM in [1]; 0.152 µM in assay [2]; 0.159 µM in assay [3]; 0.166 µM in assay [4]; 0.413 µM in [5]; 0.53 µM in assay [6]. Besides, the GI50 in [7] was 0.519 µM; in assay [8], 0.275 µM; in [9] it was 0.973 µM; in assay [10], 0.146 µM. Moreover, the TGI in [1] came to 4.7 µM; in [2], 0.559 µM; in assay [3] it was 0.8 µM; in assay [4], 0.723 µM; in assay [5], 1.52 µM; in [6], 4.04 µM. The TGI was 3.8 µM in [7], 1.87 µM in assay [8], above 13.1 µM in assay [9] and above 10.9 µM in assay [10].
Regarding `COc1cc(/C=C/c2cc(/C=C/c3ccc(O)c(OC)c3)n(C(=O)Nc3ccc(Cl)cc3)n2)ccc1O`, the GI50 was 1.61 µM in assay [1]; 0.306 µM in assay [2]; 0.376 µM in [3]; 0.37 µM in [4]; 1.26 µM in [5]; 0.354 µM in assay [6]. Moreover, the GI50 is 2.47 µM in [7], 0.426 µM in assay [8], 0.732 µM in assay [9] and 0.298 µM in assay [10]. Further, the TGI came to 9.62 µM in assay [1]; 1.25 µM in assay [2]; 2.48 µM in assay [3]; 1.4 µM in [4]; 6.81 µM in [5]; 1.84 µM in assay [6]. Besides, the TGI in assay [7] is 7.52 µM; in assay [8], 1.8 µM; in assay [9], 5.63 µM; in assay [10], above 21.4 µM.
Consider `C[C@]12CCNC(=O)C=C1CC[C@@H]1C2CC[C@@]2(C)C1CC[C@@H]2OC(=O)COc1ccc(N(CCCl)CCCl)cc1` (some centres undefined), for which the TGI in assay [1] came out at 40.3 µM; in assay [2] it was 24.6 µM; in assay [3] it was 47.6 µM; in assay [4], 20.3 µM; in [5] it was 37.2 µM; in assay [6], 24.4 µM. Further, the TGI stood at 29.5 µM in assay [7], 21.7 µM in assay [8], 98.1 µM in assay [9] and 9.45 µM in [10].
`CCOC(=O)c1cnn2c3ccccc3n(S(=O)(=O)c3ccc(OC)cc3)c12`: the GI50 in [1] was 0.583 µM; in [2] it was 0.319 µM; in assay [3], 0.37 µM; in assay [4] it was 0.211 µM; in assay [5] it was 17.1 µM; in assay [6], 0.196 µM. Also, the GI50 in assay [7] is 0.558 µM; in assay [8] it was 0.786 µM; in [9] it was 0.459 µM; in assay [10], 0.257 µM. Further, the TGI was above 100 µM in assay [1]; 2.27 µM in assay [2]; 28.2 µM in assay [3]; above 100 µM in [4]; above 100 µM in assay [5]; 21.9 µM in [6]. For the same molecule, the TGI in assay [7], in assay [8], in assay [9] and in assay [10] was above 100 µM throughout.
`O=C1c2ccccc2C(=O)c2sc(Nc3ccccc3Cl)nc21`: the TGI came out at 22.2 µM in [1]; 16.4 µM in [2]; 10.6 µM in assay [3]; 13.1 µM in [4]; 21.4 µM in assay [5]; 29.6 µM in [6]. Also, the TGI in assay [7] is 41 µM; in assay [8], 33.7 µM; in assay [9], 80.4 µM; in assay [10], 9.56 µM.
In the case of `Cc1ccc(NCCN(C)C)c2c(=O)c3ccccc3sc12`, the GI50 in [1] is 2.96 µM; in assay [2], 1.49 µM; in [3] it was 1.67 µM; in assay [4], 1.59 µM; in assay [5] it was 1.88 µM; in [6], 1.66 µM. Also, the GI50 in assay [7] is 1.76 µM; in assay [8], 1.73 µM; in [9] it was 1.59 µM; in assay [10], 2.12 µM. The TGI in assay [1] is 9.93 µM; in assay [2], 2.83 µM; in [3], 4.21 µM; in assay [4] it was 3.05 µM; in assay [5], 3.83 µM; in assay [6], 3.1 µM. Besides, the TGI came to 3.38 µM in [7], 3.92 µM in assay [8], 3.76 µM in assay [9] and 6.18 µM in assay [10].
Consider `O=C(/C=C/C12c3ccccc3C(c3ccccc31)C1C(=O)NC(=O)C12)c1ccc(Cl)cc1` (centres undefined), for which the GI50 in [1] is 1.43 µM; in assay [2], 1.7 µM; in assay [3], 1.66 µM; in [4] it was 1.65 µM; in assay [5], 1.56 µM; in [6], 2.14 µM. Also, the GI50 in assay [7] was 1.58 µM; in assay [8], 1.85 µM; in [9], 1.94 µM; in assay [10], 1.66 µM. Also, the TGI in assay [1] is 2.87 µM; in [2], 3.08 µM; in assay [3], 4.5 µM; in assay [4], 3.29 µM; in assay [5], 3.45 µM; in assay [6], 5.44 µM. Also, the TGI in [7] is 3.35 µM; in [8], 3.87 µM; in [9] it was 7.22 µM; in assay [10] it was above 100 µM.
Consider `NC(=Nc1ccc(N)cc1)C(N)=Nc1ccc(N)cc1`, for which the GI50 in assay [1] is above 100 µM; in assay [2], above 100 µM; in assay [3] it was above 100 µM; in [4], above 100 µM; in [5] it was above 100 µM; in [6], 61 µM. The GI50 in assay [7] is above 100 µM; in assay [8], above 100 µM; in [9], above 100 µM; in [10], 45.7 µM. For the same molecule, the TGI in assay [1], in [2], in assay [3], in [4], in assay [5] and in assay [6] was above 100 µM each time. The TGI in [7], in [8], in [9] and in [10] was above 100 µM in each case.
On to `O=C(c1ccccc1)n1c(-c2ccccc2)cs/c1=N\S(=O)(=O)c1ccc(N2N=C3c4ccccc4CC3C2c2cccs2)cc1` (centres undefined), for which the GI50 in [1] is 40.7 µM; in assay [2], 24.4 µM; in assay [3], 32.3 µM; in assay [4], 33 µM; in [5], 45.7 µM; in assay [6], 38.3 µM. Besides, the GI50 in assay [7] is 34.3 µM; in assay [8] it was above 100 µM; in [9] it was 17 µM; in assay [10], 41.3 µM. For the same molecule, the TGI in assay [1], in [2], in [3], in assay [4], in [5] and in assay [6] was above 100 µM in each case. Moreover, the TGI in [7], in [8], in [9] and in [10] was above 100 µM each time.
As to `CN(C)c1ccc(/C=c2/c3ccccc3n3c2c2cc(F)ccc2[n+]3C)cc1`, the GI50 in assay [1] is 4.29 µM; in [2], 2.35 µM; in assay [3], 0.715 µM; in assay [4], 4.02 µM; in assay [5] it was 4.31 µM; in [6], 4.28 µM. The GI50 in assay [7] was 16.2 µM; in assay [8], 34.1 µM; in assay [9], 3.99 µM; in assay [10] it was 2.79 µM. In addition, the TGI in assay [1] is 20.1 µM; in [2] it was 6.06 µM; in assay [3] it was 3.55 µM; in [4] it was 22.9 µM; in assay [5] it was 11.8 µM; in assay [6], 19.4 µM. Besides, the TGI is 31.5 µM in assay [7], above 100 µM in assay [8], 25.4 µM in assay [9] and 46.1 µM in assay [10].
For the molecule `O=C(Nc1cc(Oc2cc(F)c(NC(=O)C3(C(=O)Nc4ccc(F)cc4)CC3)cc2F)ccn1)C1CC1`, the GI50 in [1] was 2.42 µM; in assay [2], 1.52 µM; in [3] it was 2.95 µM; in assay [4] it was 1.53 µM; in [5], 2.08 µM; in assay [7] it was 3.12 µM. The GI50 in assay [8] is 4.04 µM; in assay [9], 2.5 µM; in assay [10] it was 2.39 µM. The TGI in assay [1] is 5.51 µM; in assay [2], 3.47 µM; in assay [3], 6.51 µM; in assay [4], 5.23 µM; in assay [5], 6.32 µM; in [6] it was 7.42 µM. Moreover, the TGI in [7] was above 100 µM; in assay [8] it was above 29.9 µM; in assay [9], 6.82 µM; in assay [10] it was 7.59 µM.
On to `COc1ccc(C(CC(=O)c2ccccc2)C(C(=O)c2ccccc2)C(c2ccc(OC)cc2)C2C(=O)NC(=S)NC2=O)cc1` (centres undefined), for which the GI50 in assay [1] is 2.44 µM; in [2] it was 10.5 µM; in assay [3], 25.6 µM; in assay [4], 36.9 µM; in assay [5], 13.8 µM; in assay [6], 8.12 µM. Also, the GI50 in assay [7] is 13.9 µM; in assay [8], above 100 µM; in [9], 10.5 µM; in assay [10], 11.8 µM. In addition, the TGI is 57.2 µM in assay [1]; 22.7 µM in assay [2]; above 100 µM in [3]; above 100 µM in [4]; 52.7 µM in assay [5]; 39.8 µM in assay [6]. In addition, the TGI in assay [7] was 37.7 µM; in assay [8], above 100 µM; in [9] it was 47.9 µM; in assay [10] it was above 100 µM.
`CC(=O)OC1CC[C@@]2(C)C(CC[C@]3(C)C2CC=C2[C@@H]4C(C)[C@H](C)CCC4(C)CCC23C)[C@@]1(C)C(=O)O` (some centres undefined): the TGI in assay [1] came to 43.3 µM; in assay [2], 35.5 µM; in assay [3], 64.8 µM; in assay [4], 52.4 µM; in assay [5], 40.9 µM; in [6], 53.9 µM. Further, the TGI stood at 33.3 µM in [7], 40.4 µM in assay [8], 64.9 µM in [9] and 66.3 µM in [10].
With `COc1cccc2c1C(=O)OC2c1cccc2ccccc12` (centres undefined), the TGI in assay [1], in [2], in assay [3], in assay [4], in assay [5] and in assay [6] was above 100 µM each time. Also, the TGI in assay [7], in assay [8], in assay [9] and in [10] was above 100 µM each time.
Regarding `CCOC(=O)/C=C/C(=O)[C@H](CC(C)C)NC(=O)[C@H](Cc1ccccc1)NC(=O)OCc1ccccc1`, the GI50 in assay [1] was 15.6 µM; in assay [2] it was 16.4 µM; in assay [3], 2.13 µM; in assay [4], 3.54 µM; in assay [5] it was 15 µM; in assay [6] it was 12.2 µM. In addition, the GI50 in assay [7] is 14.3 µM; in assay [8] it was 18.6 µM; in [9] it was 10.9 µM; in assay [10], 2.58 µM. For the same molecule, the TGI in [1] turned out to be 29 µM; in [2], 31.1 µM; in [3], 5.97 µM; in assay [4], 13.2 µM; in assay [5] it was 29.2 µM; in [6], 27.8 µM. Besides, the TGI in assay [7] was 31.1 µM; in assay [8] it was 32.6 µM; in [9], 67.9 µM; in assay [10], 18.8 µM.
For the molecule `CCS(=O)(=O)c1ccc(OC)c(Nc2ncc(-c3ccccc3Cl)o2)c1`, the GI50 in [1] is above 21.3 µM; in assay [2], 7.4 µM; in [3], 13.4 µM; in assay [4] it was 12.5 µM; in [5], above 25 µM; in assay [6] it was 7.59 µM. The GI50 in assay [7] was 10.9 µM; in assay [8] it was 8.47 µM; in assay [9] it was 11.5 µM; in assay [10] it was 9.78 µM. The TGI in assay [1] was above 25 µM; in [2], above 19.4 µM; in [3], above 25 µM; in [4] it was above 25 µM; in assay [5], above 25 µM; in assay [6], above 25 µM. Also, the TGI in [7], in [8], in [9] and in assay [10] was above 25 µM throughout.
